Data on six compounds can be found in ChEMBL document CHEMBL1157039, “Synthesis and characterization of novel fatty acid analogs of cholesterol: in vitro antimicrobial activity” (2010).

For orientation: MIC means the lowest concentration found to suppress growth.

The test system of test [1] is Streptococcus mutans. Briefly: Antibacterial activity against Streptococcus mutans UA159 MTCC 497 after 24 hrs by disk diffusion method. Format: functional. For orientation: In agar diffusion tests the substance spreads into inoculated agar from a disc or well.
Test [2] relates to Streptococcus pyogenes. In words: Antibacterial activity against recultured Streptococcus pyogenes after 24 hrs by disk diffusion method. Format: functional.
Test [3] concerns Staphylococcus aureus. Briefly: Antibacterial activity against Staphylococcus aureus ATCC 25923 after 24 hrs by disk diffusion method. Type of test: functional.
Test [4] has as its system Pseudomonas aeruginosa. In words: Antibacterial activity against Pseudomonas aeruginosa ATCC 27853 after 24 hrs by disk diffusion method. Type of test: functional.
The test system of test [5] is Salmonella enterica. In words: Antibacterial activity against recultured Salmonella Typhimurium after 24 hrs by disk diffusion method. Type of test: functional, Salmonella enterica subsp. enterica serovar Typhimurium.
The test system of test [6] is Escherichia coli. In words: Antibacterial activity against Escherichia coli ATCC 25922 after 24 hrs by disk diffusion method. Format: functional.
For test [7], the system named is Streptococcus mutans. Briefly: Antibacterial activity against Streptococcus mutans UA159 MTCC 497 after 24 hrs by microdilution method. Type of test: functional. To be noted: UA159 MTCC 497, 24 h.
The subject of test [8] is Streptococcus pyogenes. In words: Antibacterial activity against recultured Streptococcus pyogenes after 24 hrs by microdilution method. Type of test: functional. For orientation: Broth dilution looks for growth in wells or tubes with falling amounts of substance.
Test [9] deals with Staphylococcus aureus. Briefly: Antibacterial activity against Staphylococcus aureus ATCC 25923 after 24 hrs by microdilution method. Type of test: functional. To be noted: ATCC 25923, 24 h.
Test [10] deals with Pseudomonas aeruginosa. In words: Antibacterial activity against Pseudomonas aeruginosa ATCC 27853 after 24 hrs by microdilution method. To be noted: ATCC 27853, 24 h. Format: functional.
For test [11], the system named is Salmonella enterica. In words: Antibacterial activity against recultured Salmonella Typhimurium after 24 hrs by microdilution method. Type of test: functional, Salmonella enterica subsp. enterica serovar Typhimurium.
For test [12], the system named is Escherichia coli. Briefly: Antibacterial activity against Escherichia coli ATCC 25922 after 24 hrs by microdilution method. Format: functional. To be noted: ATCC 25922, 24 h.
For test [13], the system named is Candida albicans. In words: Antifungal activity against Candida albicans ATCC 24433 after 48 to 72 hrs by disk diffusion method. Format: functional.
In test [14] the test system is Pichia kudriavzevii. Briefly: Antifungal activity against Candida krusei ATCC 6528 after 48 to 72 hrs by disk diffusion method. Format: functional.
Test [15] relates to Candida parapsilosis. Briefly: Antifungal activity against Candida parapsilosis ATCC 22019 after 48 to 72 hrs by disk diffusion method. Type of test: functional.
Test [16] deals with Cryptococcus neoformans. Briefly: Antifungal activity Cryptococcus neoformans after 48 to 72 hrs by disk diffusion method. Format: functional.
The subject of test [17] is Candida albicans. Briefly: Antifungal activity against Candida albicans ATCC 24433 after 48 to 72 hrs by microdilution method. Type of test: functional.
Test [18] concerns Pichia kudriavzevii. Briefly: Antifungal activity against Candida krusei ATCC 6528 after 48 to 72 hrs by microdilution method. Type of test: functional.
The test system of test [19] is Candida parapsilosis. Briefly: Antifungal activity against Candida parapsilosis ATCC 22019 after 48 to 72 hrs by microdilution method. To be noted: Lodderomyces parapsilosis. Format: functional.
Test [20] deals with Cryptococcus neoformans. Briefly: Antifungal activity Cryptococcus neoformans after 48 to 72 hrs by microdilution method. Format: functional.

≈ marks a conversion by molar mass, not a printed value.

For `C=CCCCCCCCCC(=O)O[C@H]1CC[C@@]2(C)C(=CC[C@H]3[C@@H]4CC[C@H]([C@H](C)CCCC(C)C)[C@@]4(C)CC[C@@H]32)C1`, the “diameter of the inhibition zone (DIZ)” value stood at 20.5 mm in the test on Streptococcus mutans [1]; 19.2 mm in the test on Streptococcus pyogenes [2]; 19.8 mm with Staphylococcus aureus [3]; 16.2 mm with Pseudomonas aeruginosa [4]; 16.4 mm with Salmonella enterica [5]; 16.5 mm in the test with Escherichia coli [6]. Moreover, the “diameter of the inhibition zone (DIZ)” value in the test on Candida albicans [13] is 18.3 mm; with Pichia kudriavzevii [14], 16.1 mm; with Candida parapsilosis [15], 15.1 mm; with Cryptococcus neoformans [16], 12.1 mm. The MIC came out at 32 µg/mL (≈ 57.9 µM) in the test with Streptococcus mutans [7]; 32 µg/mL (≈ 57.9 µM) with Streptococcus pyogenes [8]; 64 µg/mL (≈ 116 µM) in the test on Staphylococcus aureus [9]; 32 µg/mL (≈ 57.9 µM) against Pseudomonas aeruginosa [10]; 128 µg/mL (≈ 231 µM) against Salmonella enterica [11]; 128 µg/mL (≈ 231 µM) in the test with Escherichia coli [12]. The MIC in the test on Candida albicans [17] worked out at 2 µg/mL (≈ 3.62 µM); against Pichia kudriavzevii [18], 256 µg/mL (≈ 463 µM); against Candida parapsilosis [19], 32 µg/mL (≈ 57.9 µM); against Cryptococcus neoformans [20], 128 µg/mL (≈ 231 µM).
`CC(C)CCC[C@@H](C)[C@H]1CC[C@H]2[C@@H]3CC=C4C[C@@H](OC(=O)CCCCCCCCC(Br)CBr)CC[C@]4(C)[C@H]3CC[C@]12C` (stereo not given in full): the “diameter of the inhibition zone (DIZ)” value is listed as 20.3 mm with Streptococcus mutans [1]; 18.8 mm in the test with Streptococcus pyogenes [2]; 19.5 mm in the test on Staphylococcus aureus [3]; 15.1 mm in the test with Pseudomonas aeruginosa [4]; 16.1 mm in the test on Salmonella enterica [5]; 16.4 mm in the test on Escherichia coli [6]. The “diameter of the inhibition zone (DIZ)” value is recorded as 19.5 mm in the test with Candida albicans [13], 17.5 mm in the test with Pichia kudriavzevii [14], 16.8 mm in the test with Candida parapsilosis [15] and 15.9 mm with Cryptococcus neoformans [16]. For the same compound, the MIC is 32 µg/mL (≈ 44.9 µM) in the test on Streptococcus mutans [7]; 32 µg/mL (≈ 44.9 µM) with Streptococcus pyogenes [8]; 64 µg/mL (≈ 89.8 µM) against Staphylococcus aureus [9]; 128 µg/mL (≈ 180 µM) with Pseudomonas aeruginosa [10]; 128 µg/mL (≈ 180 µM) in the test on Salmonella enterica [11]; 128 µg/mL (≈ 180 µM) in the test with Escherichia coli [12]. Also, the MIC with Candida albicans [17] was 1 µg/mL (≈ 1.4 µM); in the test with Pichia kudriavzevii [18], 128 µg/mL (≈ 180 µM); with Candida parapsilosis [19], 8 µg/mL (≈ 11.2 µM); with Cryptococcus neoformans [20] it was 32 µg/mL (≈ 44.9 µM).
Consider `C=CCCCCCCCCC(=O)O[C@H]1CC[C@]2(C)[C@H]3CC[C@]4(C)[C@@H]([C@H](C)CCCC(C)C)CC[C@H]4[C@@H]3C[C@@H](Br)[C@@]2(Br)C1`, for which the “diameter of the inhibition zone (DIZ)” value is 21.5 mm with Streptococcus mutans [1]; 20.2 mm in the test on Streptococcus pyogenes [2]; 20.1 mm in the test with Staphylococcus aureus [3]; 17.1 mm in the test with Pseudomonas aeruginosa [4]; 16.2 mm with Salmonella enterica [5]; 19.8 mm in the test with Escherichia coli [6]. Moreover, the “diameter of the inhibition zone (DIZ)” value in the test on Candida albicans [13] was determined as 15.5 mm; with Pichia kudriavzevii [14], 13.4 mm; with Candida parapsilosis [15] it was 12.8 mm; in the test on Cryptococcus neoformans [16] it was 12.7 mm. The MIC with Streptococcus mutans [7] was found to be 32 µg/mL (≈ 44.9 µM); in the test with Streptococcus pyogenes [8], 64 µg/mL (≈ 89.8 µM); with Staphylococcus aureus [9], 64 µg/mL (≈ 89.8 µM); in the test with Pseudomonas aeruginosa [10], 512 µg/mL (≈ 718 µM); in the test on Salmonella enterica [11], 128 µg/mL (≈ 180 µM); in the test on Escherichia coli [12] it was 128 µg/mL (≈ 180 µM). Moreover, the MIC against Candida albicans [17] was 16 µg/mL (≈ 22.4 µM); in the test on Pichia kudriavzevii [18], 256 µg/mL (≈ 359 µM); in the test on Candida parapsilosis [19] it was 256 µg/mL (≈ 359 µM); against Cryptococcus neoformans [20], 128 µg/mL (≈ 180 µM).
As for `CC(C)CCC[C@@H](C)[C@H]1CC[C@H]2[C@@H]3C[C@@H](Br)[C@@]4(Br)C[C@@H](OC(=O)CCCCCCCCC(Br)CBr)CC[C@]4(C)[C@H]3CC[C@]12C` (stereo not given in full), the “diameter of the inhibition zone (DIZ)” value in the test on Streptococcus mutans [1] was 23.1 mm; with Streptococcus pyogenes [2] it was 23.3 mm; in the test with Staphylococcus aureus [3], 22.5 mm; in the test on Pseudomonas aeruginosa [4] it was 17.1 mm; with Salmonella enterica [5], 21.3 mm; in the test with Escherichia coli [6], 20.5 mm. In addition, the “diameter of the inhibition zone (DIZ)” value in the test with Candida albicans [13] is given as 17.8 mm; in the test on Pichia kudriavzevii [14], 15.5 mm; with Candida parapsilosis [15] it was 14.4 mm; with Cryptococcus neoformans [16], 13.8 mm. For the same compound, the minimum inhibitory concentration (MIC) was determined as 32 µg/mL (≈ 36.7 µM) in the test on Streptococcus mutans [7]; 32 µg/mL (≈ 36.7 µM) with Streptococcus pyogenes [8]; 32 µg/mL (≈ 36.7 µM) against Staphylococcus aureus [9]; 64 µg/mL (≈ 73.3 µM) in the test with Pseudomonas aeruginosa [10]; 64 µg/mL (≈ 73.3 µM) in the test with Salmonella enterica [11]; 32 µg/mL (≈ 36.7 µM) in the test with Escherichia coli [12]. The MIC was determined as 4 µg/mL (≈ 4.58 µM) against Candida albicans [17], 512 µg/mL (≈ 587 µM) in the test on Pichia kudriavzevii [18], 64 µg/mL (≈ 73.3 µM) with Candida parapsilosis [19] and 64 µg/mL (≈ 73.3 µM) in the test on Cryptococcus neoformans [20].
As to `CC(C)CCC[C@@H](C)[C@H]1CC[C@H]2[C@@H]3CC=C4C[C@@H](OC(=O)CCCCCCCCC5CO5)CC[C@]4(C)[C@H]3CC[C@]12C` (stereo not given in full), the “diameter of the inhibition zone (DIZ)” value was 21.9 mm with Streptococcus mutans [1]; 20.5 mm with Streptococcus pyogenes [2]; 21.9 mm in the test on Staphylococcus aureus [3]; 18.5 mm with Pseudomonas aeruginosa [4]; 17.2 mm in the test with Salmonella enterica [5]; 19.9 mm in the test on Escherichia coli [6]. The “diameter of the inhibition zone (DIZ)” value in the test on Candida albicans [13] stood at 19.6 mm; in the test with Pichia kudriavzevii [14], 17.8 mm; in the test on Candida parapsilosis [15] it was 16.9 mm; in the test with Cryptococcus neoformans [16], 15.8 mm. The MIC came to 32 µg/mL (≈ 56.2 µM) in the test on Streptococcus mutans [7]; 32 µg/mL (≈ 56.2 µM) in the test with Streptococcus pyogenes [8]; 32 µg/mL (≈ 56.2 µM) against Staphylococcus aureus [9]; 64 µg/mL (≈ 112 µM) in the test with Pseudomonas aeruginosa [10]; 64 µg/mL (≈ 112 µM) against Salmonella enterica [11]; 32 µg/mL (≈ 56.2 µM) in the test on Escherichia coli [12]. The MIC in the test on Candida albicans [17] was found to be 1 µg/mL (≈ 1.76 µM); against Pichia kudriavzevii [18], 128 µg/mL (≈ 225 µM); against Candida parapsilosis [19], 8 µg/mL (≈ 14.1 µM); in the test with Cryptococcus neoformans [20], 32 µg/mL (≈ 56.2 µM).
Turning to `CCCCCCC(O)C/C=C\CCCCCCCC(=O)O[C@H]1CC[C@@]2(C)C(=CC[C@H]3[C@@H]4CC[C@H]([C@H](C)CCCC(C)C)[C@@]4(C)CC[C@@H]32)C1` (stereo not given in full), the “diameter of the inhibition zone (DIZ)” value with Streptococcus mutans [1] amounted to 22.8 mm; in the test with Streptococcus pyogenes [2] it was 22.6 mm; in the test with Staphylococcus aureus [3] it was 22.1 mm; in the test with Pseudomonas aeruginosa [4], 16.5 mm; in the test on Salmonella enterica [5], 21.1 mm; in the test on Escherichia coli [6], 20.4 mm. Besides, the “diameter of the inhibition zone (DIZ)” value with Candida albicans [13] worked out at 20.3 mm; in the test on Pichia kudriavzevii [14], 18.7 mm; with Candida parapsilosis [15], 17.8 mm; with Cryptococcus neoformans [16], 16.9 mm. Also, the MIC against Streptococcus mutans [7] is 32 µg/mL (≈ 48 µM); against Streptococcus pyogenes [8], 32 µg/mL (≈ 48 µM); in the test on Staphylococcus aureus [9], 32 µg/mL (≈ 48 µM); in the test with Pseudomonas aeruginosa [10] it was 128 µg/mL (≈ 192 µM); in the test with Salmonella enterica [11] it was 32 µg/mL (≈ 48 µM); against Escherichia coli [12], 32 µg/mL (≈ 48 µM). The MIC with Candida albicans [17] is 1 µg/mL (≈ 1.5 µM); with Pichia kudriavzevii [18] it was 64 µg/mL (≈ 95.9 µM); in the test with Candida parapsilosis [19], 8 µg/mL (≈ 12 µM); against Cryptococcus neoformans [20], 8 µg/mL (≈ 12 µM).
